From patent publication US10202349B2, “Asymmetric bis-acridines with antitumour activity and their uses” (POLITECHNIKA GDAŃSKA, priority 2015, dated 2019)

Experiments:
Assay in all cases: Cytotoxic activity in vitro, SRB
Assay type in all cases: cell-based, human
HT-29 = test system: HT-29
Protocol: (§1) Cytotoxic activity tests in-vitro. A measure of the cytotoxic activity of bis-acridines are the EC50 (concentration of studied compounds at which 50% inhibition of proliferation of tumorous is observed) of the evaluated compounds that inhibit the growth of 50% of cells in relation to a control. The cytotoxic activity of the compounds was determined using SRB, recommended by the US National Cancer Institute (USA). As the spectrum of 13 human origin neoplasms in bis-acridine screening studies, we used the following: HT 29 [CRC], HCT 116 [CRC], H 460 [lung cancer], MDA MB 231 [breast cancer], MCF-7 [breast cancer], UM UC3 [bladder cancer], PC 3 [prostate cancer], DU 145 [ prostate cancer], Panc-1 [pancreatic cancer], Mia Pa Ca 2 [pancreatic cancer], BXPC 3 [pancreatic cancer], AsPC1 [pancreatic cancer], Capan-2 [pancreatic cancer]. […] The DU-145 results were substantially a basis for selecting compounds and neoplasms for screening. The next neoplasms most sensitive to the cytotoxic activity of bis-acridines was the CRC HCT-116, as well as breast cancer MBA-MB-231. […] The cytotoxic activity of the remaining bis-acridines is significant or high (EC50 in the range from 1 to 0.04 μM). […] Panc-1, MiaPaCa-2 and Capan-2 are more sensitive, whereas for AsPC-1 and BxPC-3 this activity is at least an order of magnitude smaller.

DU-145 = test system: DU-145
Protocol: as §1

H-460 = test system: H-460
Protocol: as §1

HCT-116 = test system: HCT-116
Protocol: as §1

PANC-1 = test system: PANC-1
Protocol: as §1

MiaPaCa-2 = test system: MiaPaCa-2
Protocol: as §1

| Compound | EC50 (HT-29) [nM] | EC50 (DU-145) [nM] | EC50 (H-460) [nM] | EC50 (HCT-116) [nM] | EC50 (PANC-1) [nM] | EC50 (MiaPaCa-2) [nM] |
| --- | --- | --- | --- | --- | --- | --- |
| Cc1ccc([N+](=O)[O-])c2c(NCCNCCNc3ccc(C)c4[nH]c5ccccc5c(=O)c34)c3ccccc3nc12 [C-2016, 9-{N-[(4-methyl-9(10H)-acridono-1-yl)aminoethyl]ethylamino}-4′-methyl-1′-nitroacridine] | 413 | 599 | – | – | – | – |
| Cc1ccc([N+](=O)[O-])c2c(NCCCN(C)CCCNc3ccc([N+](=O)[O-])c4[nH]c5ccc(O)cc5c(=O)c34)c3ccccc3nc12 [C-2019, 9-{N-[(7-hydroxy-4-nitro-9(10H)acridono-1-yl)aminopropyl]-N-methylaminopropylamino}-4′-methyl-1′-nitroacridine] | 200 | 73 | 46 | – | – | – |
| Cc1ccc([N+](=O)[O-])c2c(NCCCN3CCN(CCCNc4ccc([N+](=O)[O-])c5[nH]c6ccc(O)cc6c(=O)c45)CC3)c3ccccc3nc12 [C-2020] | 233 | 61 | 47 | – | – | – |
| Cc1ccc([N+](=O)[O-])c2c(NCCCNCCCNc3ccc([N+](=O)[O-])c4[nH]c5ccc(O)cc5c(=O)c34)c3ccccc3nc12 [C-2021, 9-{N-[(7-hydroxy-4-nitro-9(10H)acridono-1-yl)aminopropyl]-aminopropylamino}-4′-methyl-1′-nitroacridine] | 129 | 78 | 73 | 88 | – | – |
| Cc1ccc([N+](=O)[O-])c2c(NCCCN(C)CCCNc3ccc(C)c4[nH]c5ccccc5c(=O)c34)c3ccccc3nc12 [C-2023, 9-{N-[(4-methyl-9(10H)-acridono-1-yl)aminopropyl]-N-methylaminopropylamino}-4′-methyl-1′-nitroacridine] | 123 | 190 | 71 | 120 | – | – |
| Cc1ccc([N+](=O)[O-])c2c(NCCCNCCNCCCNc3ccc([N+](=O)[O-])c4[nH]c5ccccc5c(=O)c34)c3ccccc3nc12 [C-2039, 9-[N-(4-nitro-9(10H)acridono-1-yl)-aminopropylaminoethylamino-propylamino]-4′-methyl-1′-nitroacridine] | – | 88 | – | – | 142 | 110 |
| O=c1c2ccccc2[nH]c2c([N+](=O)[O-])ccc(NCCCNCCNCCCNc3c4ccccc4nc4cccc([N+](=O)[O-])c34)c12 [C-2040, 9-[N-(4-nitro-9(10H)acridono-1-yl)-aminopropylaminoethylamino-propylamino]-1′-nitroacridine] | – | 55 | – | – | 60 | 46 |
| Cc1ccc([N+](=O)[O-])c2c(NCCCN(C)CCCNc3ccc4nnn5c6ccc(O)cc6c(=O)c3c45)c3ccccc3nc12 [C-2056, 9-{N-5-[(8-hydroxy-6H-[1,2,3]triazolo[4,5,1-de]-acridin-6-on-5-yl)aminopropyl]-N-methylaminopropylamino}-4′-methyl-1′-nitroacridine] | – | 38 | – | – | – | – |
| Cc1ccc([N+](=O)[O-])c2c(NCCCN3CCN(CCCNc4ccc5nnn6c7ccc(O)cc7c(=O)c4c56)CC3)c3ccccc3nc12 [C-2057, 1-[3-(8-hydroxy-6H-[1,2,3]triazolo[4,5,1-de]-acridin-6-on-5-yl)aminopropyl]-4-[3′-(4′-methyl-1′-nitroacridin-1-yl)-aminopropyl]piperazine] | – | 34 | – | – | – | – |
| Cc1ccc([N+](=O)[O-])c2c(NCCCN3CCN(CCCNc4ccc5nnn6c7ccccc7c(=O)c4c56)CC3)c3ccccc3nc12 [C-2058] | – | 42 | – | – | – | – |
| CN(CCCNc1c2ccccc2nc2cccc([N+](=O)[O-])c12)CCCNc1ccc2nnn3c4ccccc4c(=O)c1c23 [C-2060, 9-{N-5-[(6H-[1,2,3]triazolo[4,5,1-de]-acridin-6-on-5-yl)aminopropyl]-N-methylaminopropylamino}-1′-nitroacridine] | – | 150 | 185 | – | – | – |
| O=c1c2ccccc2n2nnc3ccc(NCCCNCCCNc4c5ccccc5nc5cccc([N+](=O)[O-])c45)c1c32 [C-2063, 9-{N-5-[(6H-[1,2,3]triazolo[4,5,1-de]-acridin-6-on-5-yl)aminopropyl]-aminopropylamino}-1′-nitroacridine] | – | 4.6 | 24 | – | – | – |
